Data from patent US5508311A, “Aliphatic propargylamines as selective MAO-B inhibitors and as neuroprotective agents” (University of Saskatchewan, priority 1993, dated 1996).
pIC50: −log10 of the molar value. Structures can show the parent of a compound that is named as a salt. Where two headings read alike, the source gives them in different places.

Tests used:
[1] = biological target: T1, MAO-B (Rattus norvegicus, UniProt P19643); assay: biochemical; format: biochemical
T1 sequence (P19643 1-520): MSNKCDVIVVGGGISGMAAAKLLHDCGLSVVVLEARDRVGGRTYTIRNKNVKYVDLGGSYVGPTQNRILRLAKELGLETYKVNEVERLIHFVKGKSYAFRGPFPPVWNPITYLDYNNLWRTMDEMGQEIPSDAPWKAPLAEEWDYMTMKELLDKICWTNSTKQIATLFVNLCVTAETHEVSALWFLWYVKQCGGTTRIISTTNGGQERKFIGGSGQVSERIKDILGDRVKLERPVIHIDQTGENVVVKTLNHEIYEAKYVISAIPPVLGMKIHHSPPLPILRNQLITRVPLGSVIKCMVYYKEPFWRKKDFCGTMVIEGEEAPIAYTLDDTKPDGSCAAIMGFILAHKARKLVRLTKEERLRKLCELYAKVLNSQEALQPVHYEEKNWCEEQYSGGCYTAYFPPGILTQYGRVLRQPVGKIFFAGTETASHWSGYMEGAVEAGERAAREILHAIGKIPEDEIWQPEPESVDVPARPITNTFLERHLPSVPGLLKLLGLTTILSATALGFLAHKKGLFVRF
Experimental: (§1) The aliphatic propargylamine inhibitors (from 1×10^-10 M to 1×10^-4 M) were preincubated with the MAO for 20 min. at ambient room temperature and then the residual enzyme activities were determined by addition of the substrates, followed by further incubation at 37° C. for 30 min. The enzymatic reactions were terminated by the addition of citric acid and the aldehyde products were extracted with toluene: ethyl acetate (1:1, v/v) and the radio-activities assessed in a scintillation counter.

[2] = biological target: T2, MAO-A (Rattus norvegicus, UniProt P21396); assay: biochemical; format: biochemical; conditions: substrate 5-HT (5 × 10^-4 M); rat liver MAO, in vitro; average of at least 3 independent experiments
T2 sequence (P21396 1-526): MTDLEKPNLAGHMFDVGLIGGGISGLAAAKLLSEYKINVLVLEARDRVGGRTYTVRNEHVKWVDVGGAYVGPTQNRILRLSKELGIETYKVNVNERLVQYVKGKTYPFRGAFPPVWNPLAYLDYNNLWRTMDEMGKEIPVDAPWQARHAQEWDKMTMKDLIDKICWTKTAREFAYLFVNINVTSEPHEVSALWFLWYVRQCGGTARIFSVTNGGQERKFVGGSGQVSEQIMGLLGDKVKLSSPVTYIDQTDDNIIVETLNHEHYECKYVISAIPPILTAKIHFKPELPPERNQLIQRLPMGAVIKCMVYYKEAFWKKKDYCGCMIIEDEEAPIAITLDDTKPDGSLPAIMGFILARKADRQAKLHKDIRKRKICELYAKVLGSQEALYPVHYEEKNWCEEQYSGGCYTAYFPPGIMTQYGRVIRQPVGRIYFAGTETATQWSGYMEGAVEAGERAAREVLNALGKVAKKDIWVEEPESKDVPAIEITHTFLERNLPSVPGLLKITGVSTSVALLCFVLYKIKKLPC
Experimental: as §1

[3] = biological target: T3, MAO-A (Mus musculus, UniProt Q64133); assay: in vivo; conditions: ip, read-out: 5-HT ID50
T3 construct: MAO activities in the mouse brain after; from tissue
T3 sequence (Q64133 1-526): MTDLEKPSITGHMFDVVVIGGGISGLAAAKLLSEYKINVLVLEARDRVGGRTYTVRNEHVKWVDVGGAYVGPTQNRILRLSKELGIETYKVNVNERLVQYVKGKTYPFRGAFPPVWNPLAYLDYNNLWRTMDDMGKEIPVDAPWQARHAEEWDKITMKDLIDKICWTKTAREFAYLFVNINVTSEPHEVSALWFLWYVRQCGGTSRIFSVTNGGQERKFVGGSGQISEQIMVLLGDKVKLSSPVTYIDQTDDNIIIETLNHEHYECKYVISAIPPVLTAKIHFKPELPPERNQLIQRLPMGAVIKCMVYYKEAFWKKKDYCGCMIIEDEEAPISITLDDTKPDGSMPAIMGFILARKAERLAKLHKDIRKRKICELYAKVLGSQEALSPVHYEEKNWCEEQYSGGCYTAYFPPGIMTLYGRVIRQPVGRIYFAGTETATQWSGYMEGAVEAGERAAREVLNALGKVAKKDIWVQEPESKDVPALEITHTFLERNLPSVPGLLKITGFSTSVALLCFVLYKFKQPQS
Experimental: (§2) Albino Swiss mice were used in this study. The animals were injected intraperitoneally with different doses of the aliphatic propargylamines in 100 μL saline.
(§3) 0.5, 1, 2, 5, 10, 20, 50, 100 mg/Kg. Striata were dissected from the brai
(§4) two hours after i.p. administration of the drugs. MAOA and MAOB activitie
(§5) were determined immediately. The values were estimated from doseresponse

[4] = biological target: T4, MAO-B (Mus musculus, UniProt Q8BW75); assay: in vivo; format: in vivo; conditions: for MAO-B ID50 (mg/Kg) / IC50 (1 × 10^-6 M): ID50 i.p. in mice versus IC50 in vitro; for Ratio MAO-A/MAO-B: 120 min; for ED50: 2 hours after administration, estimated from dose response curves, read-out: PE ID50
T4 construct: MAO activities in the mouse brain after; from tissue
T4 sequence (Q8BW75 1-520): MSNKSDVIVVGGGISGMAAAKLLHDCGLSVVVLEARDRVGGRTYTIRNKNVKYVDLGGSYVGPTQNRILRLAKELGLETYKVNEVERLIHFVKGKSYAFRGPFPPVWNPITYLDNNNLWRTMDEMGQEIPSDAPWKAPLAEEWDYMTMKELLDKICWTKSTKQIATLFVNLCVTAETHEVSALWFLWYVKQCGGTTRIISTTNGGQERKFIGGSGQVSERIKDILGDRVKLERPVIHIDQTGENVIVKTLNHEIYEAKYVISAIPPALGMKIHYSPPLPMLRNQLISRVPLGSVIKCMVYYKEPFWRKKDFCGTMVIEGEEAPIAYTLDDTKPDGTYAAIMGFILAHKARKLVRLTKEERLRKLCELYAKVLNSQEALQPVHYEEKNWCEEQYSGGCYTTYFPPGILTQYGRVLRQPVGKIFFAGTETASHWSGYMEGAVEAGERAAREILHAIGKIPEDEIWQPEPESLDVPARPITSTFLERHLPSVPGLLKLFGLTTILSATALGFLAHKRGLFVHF
Experimental: as §2, §3, §4, §5

[5] = biological target: monoamine oxidase; assay: Inhibition of rat liver monoamine oxidase deamination of dopamine (DA, mixed-type MAO A and B substrate) in vitro; format: biochemical; conditions: substrate DA (5 × 10^-4 M), average of at least 3 independent experiments
Experimental: as §1

[6] = biological target: T4, MAO-B; assay: MAO-B activity in the mouse brain after oral administration (substrate PE); format: in vivo
Experimental: (§6) Table 3 indicates the MAO activities in the mouse brain following oral administration of the aliphatic propargylamines.
(§7) of each compound. Striata were dissected from the brain two hours after
(§8) the administration of the drugs. MAOA and MAOB activities were determined
Striata were dissected from the brain two
hours after oral administration of the drugs. MAOB activities were then
determined immediately. The values were estimated from doseresponse

[7] = biological target: T3, MAO-A; format: in vivo; conditions: oral 10 mg/Kg, 2 hours; 5-HT (5 × 10^-4 M); mean ± standard error; saline = 100
Experimental: as §6, §7, §8

[8] = substrate PE (1.9 × 10^-5 M), rat liver MAO, in vitro, average of at least 3 independent experiments

C#CCN(C)C(CC)CC.O=C(O)C(=O)O [Example M-3-PP, N-Methyl-N-(3-pentyl)propargylamine oxalate]
Ratio MAO-A/MAO-B ([1]; rat, liver mitochondrial membranes): 10
pIC50 ([1]; read-out: PE IC50): 6.70
pIC50 [2]: 5.70
ED50 ([3]; 2 h): 12 mg/kg
MAO-B ID50 (mg/Kg) / IC50 (1 × 10^-6 M) [4]: 10 (mg/Kg)/(1 × 10^-6 M)
Ratio MAO-A/MAO-B ([4]; mouse, in vivo, ip): 12
ED50 ([4]; mouse, ip): 1 mg/kg

C#CCN(CC)C(C)CC (centres unmarked) [Example 2-BuEP, N-(2-Butyl)-N-ethylpropargylamine hydrochloric salt]
PE IC50 [1, 8]: inactive
5-HT IC50 [2]: inactive

C#CCN(C)C(C)C.Cl [Example 2-PrMP, N-Methyl-N-(2-propyl)propargylamine hydrochloride]
pIC50 ([1]; […], rat liver MAO, in vitro, average of at least 3 independent experiments, read-out: PE IC50): 4.70
5-HT IC50 [2]: no effect
pIC50 [5]: 4.52

C#CCN(C)C(C)CCCCCCCC.Cl (centres unmarked) [Example 2-DMP, N-(2-Decyl)-N-methylpropargylamine hydrochloride]
Ratio MAO-A/MAO-B ([1]; ratio of IC50 values, in vitro): 50
pIC50 ([1]; read-out: PE IC50): 6.70
pIC50 [2]: 5.40
ED50 ([3]; 2 hours after administration, 5-HT 5 × 10^-4 M, estimated from dose response curves): 35 mg/kg
pIC50 [5]: 6.70
MAO-B ID50 (mg/Kg) / IC50 (1 × 10^-6 M) [4]: 25 (mg/Kg)/(1 × 10^-6 M)
ED50 ([4]; mouse, ip): 5 mg/kg
Ratio MAO-A/MAO-B ([4]; ratio of ID50 values, i.p.): 7
effectiveness in blocking MAO-B activity in vivo after acute oral administration (in words) ([6]; mouse, oral): less potent at inhibiting MAO-B activity in vivo after acute administration
ED50 ([6]; mouse, oral, 2 hours, average of 5 animals per dose, estimated from dose response curves, read-out: Inhibition of MAO-B activity, dose response (ID50)): 50 mg/kg
Relative activity PE ([6]; oral 10 mg/Kg, 2 hours, PE (1.9 × 10^-5 M), mean ± standard error, saline = 100): 104 ± 7%
Relative activity 5-HT [7]: 97 ± 8%

C#CCN(C)CCCCCCO.Cl [Example 6-OH-Hx1MP, N-(6-Hydroxy-1-hexyl)-N-methylpropargylamine-HCl]
pIC50 [1, 8]: 4.00
5-HT IC50 [2]: inactive

C#CCN(C)C(C)CCCC(=O)OCC.Cl (centres unmarked) [Example 5-CP2MP, N-(5-Carbethoxy-2-pentyl)-N-methylpropargylamine-HCl]
PE IC50 [1]: inactive
5-HT IC50 [2]: inactive
DA IC50 [5]: inactive

C#CCN(C)CCCCCC(=O)OCC.O=C(O)C(=O)O [Example 5-CP1MP, N-(5-carbethoxy-1-pentyl)-N-methylpropargylamine oxalate]
PE IC50 [1]: inactive
5-HT IC50 [2]: inactive
DA IC50 [5]: inactive
